The test system of one data set is human liver microsomes. The data set is described as follows: In vitro glucuronidation of lysophosphatidic acids by human liver microsomes. The class given is in vitro ADME. Particulars: for Glucuronidation by human liver microsomes (in words): FIG. 9A. The text has this:
(§1) Reactions with substrates were run in duplicates.
(§2) Lysophosphatidic acid (LPA) stimulates lysophosphatidic acid receptors which in turn activate PKC and Ras-MAPK signalling pathways. Lysophosphatidic acid is a lipid second messenger involved in progression of malignant ovarian cancer. Cellular effects of lysophosphatidic acid accumulation include stimulation of cell proliferation, inhibition of apoptosis and increased invasiveness of cancer cells. It was hypothesized that anti-proliferative activity of UDP-glucuronosyltransferase 2B7 in the ovarian cancer cell model described above may be associated with inactivation of lysophosphatidic acid through glucuronidation. Thus, in vitro glucuronidation experiments on three different lysophosphatidic acid compounds (FIG. 10) was conducted using human liver microsomes and a recombinant UDP-glucuronosyltransferase 2B7 expressed in HK293 cells.
A general note: Liver microsomes are a subcellular fraction often used to study metabolism.

Data set [1] addresses T1, recombinant UDP-glucuronosyltransferase 2B7 (Homo sapiens, UniProt P16662).
T1 construct: made in house
T1 sequence (P16662 24-529): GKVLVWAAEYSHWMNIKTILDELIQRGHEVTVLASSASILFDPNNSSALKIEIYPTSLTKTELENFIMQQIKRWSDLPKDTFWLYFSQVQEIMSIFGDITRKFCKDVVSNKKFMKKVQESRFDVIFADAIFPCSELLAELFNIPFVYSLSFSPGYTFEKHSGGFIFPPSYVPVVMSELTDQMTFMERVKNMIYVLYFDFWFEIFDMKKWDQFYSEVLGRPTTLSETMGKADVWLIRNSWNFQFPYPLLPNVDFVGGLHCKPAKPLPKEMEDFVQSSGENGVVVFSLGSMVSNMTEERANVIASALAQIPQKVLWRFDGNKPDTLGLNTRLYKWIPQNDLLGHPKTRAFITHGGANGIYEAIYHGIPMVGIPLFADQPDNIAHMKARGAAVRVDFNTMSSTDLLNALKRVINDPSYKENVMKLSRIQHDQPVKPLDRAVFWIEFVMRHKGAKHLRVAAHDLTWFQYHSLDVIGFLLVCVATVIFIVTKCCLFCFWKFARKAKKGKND
The data set is described as follows: In vitro glucuronidation of lysophosphatidic acids by recombinant UGT2B7 expressed in HK293 cells. As to conditions: for Glucuronidation by UGT2B7 (in words): recombinant UGT2B7, FIG. 9A. It counts as in vitro ADME.
Source text: as §1, §2

Each structure is given as a SMILES string.

Take `CCCCCCCC/C=C\CCCCCCCC(=O)OCC(O)COP(=O)(O)O` (centres unmarked) [oleoyl-lysophosphatidic acid]: the “Specific activity of glucuronidation” value in the data set with human liver microsomes is on record as 560 pmol/min/mg; in data set [1] (recombinant UGT2B7 expressed in HK293 cells), 250 pmol/min/mg. In addition, in the data set with human liver microsomes, the “Glucuronidation by human liver microsomes (in words)” value is “same activity profile”. Besides, the “Glucuronidation by UGT2B7 (in words)” value in data set [1] is on record as “actively glucuronidated”.
With `CCCCCCCCCCCCCCCC(=O)OC[C@@H](O)COP(=O)(O)O` [palmitoyl-lysophosphatidic acid], the “Glucuronidation by human liver microsomes (in words)” value in the data set on human liver microsomes is given as “same activity profile”. In addition, the “Glucuronidation by UGT2B7 (in words)” value in data set [1] was “not”.
`CCCCCCCCCCCCCCCCCC(=O)OC[C@@H](O)COP(=O)(O)O` [stearoyl-lysophosphatidic acid]: in the data set on human liver microsomes, the “Glucuronidation by human liver microsomes (in words)” value is given as “same activity profile”. The “Glucuronidation by UGT2B7 (in words)” value in data set [1] was “not”.

For the origin of these results see patent publication US7097992B2, “Uses of human UDP-glucuronosyltransferase 2B7 to detect and treat cancer” (priority 2001, dated 2006).
